In US9233949B2, “Treatment for oxidative stress and/or hypertension” (Georgetown University, priority 2009, dated 2016):

Assays:
[1] = tested on: conscious salt-loaded spontaneously hypertensive rats; test: MAP in conscious salt-loaded SHR, daily oral gavage of drugs dissolved in DMSO; type: in vivo, rat; details: for Δ MAP Day 1 / Δ MAP Day 2 / Δ MAP Day 3: mean vehicle-adjusted fall, 2 mL of 10 mmol/L daily oral gavage, DMSO, n=3; for blood pressure effect, summary of Table 1: over three days, DMSO vehicle
Experimental: In another experiment, conscious salt-loaded spontaneously hypertensive rats received daily oral gavage with 2 mL of 10 mmol/L tempol, telmisartan, tempol/telmisartan ester-linked adduct (YK), tempamine/telmisartan amide-linked adduct (PLJ), and tempol+telmisartan. The drugs were dissolved in DMSO.

[2] = tested on: O2.^− generated by xanthine plus xanthine oxidase; test: Cell-free SOD mimetic / antioxidant assay, lucigenin-enhanced chemiluminescence; type: biochemical; details: drugs 10^−4 M, cell-free buffer with xanthine plus xanthine oxidase
Experimental: Low dose (10 μmol L^−1) lucigenin-enhanced chemiluminescence was used as previously described, to detect O2.^−, antioxidants or SOD mimetic properties. Vehicle or drugs (10^−4 M) were first added to cell-free buffer with O2.^− stimulated with xanthine (25 μmol/L) plus xanthine oxidase (9 IU/mL) to study the intrinsic antioxidant properties of the drugs used (34). Subsequent studies were performed in PGVSMCs from spontaneously hypertensive rats grown in 6-well plates. Cells (10^6 cells per well) were stimulated for 4 hours with Ang II (10^−6 M) to generate O2.^− in the presence of vehicle or drugs (19, 34, 45).

[3] = tested on: conscious spontaneously hypertensive rats; test: Telemetric mean arterial pressure in conscious SHR on high salt diet after gavage; type: in vivo, rat; details: for reduction of MAP: 80 μmol·kg^−1 once-daily gavage, high salt diet, maximal 16-24 hours after each gavage; for reduction of BP compared with tempol: after the first and the fourth gavage
Experimental: Spontaneously hypertensive rats (SHR) were anesthetized with 3% isoflurane for placement of telemetric blood pressure recorders as described (46). After 10 days, spontaneously hypertensive rats were anesthetized with halothane between 9 and 10 am and given a 2 mL gavage. Each rat was first given a training gavage with 2 mL of vehicle (0.9% w/v sodium chloride) and, two days later a second vehicle gavage as the control group. We detected no differences in the pattern of 4-hourly BP recording after the first or second vehicle gavage, compared to a day in which no gavage was given (data not shown). Blood pressure was recorded continuously. Data are presented as mean values over 4-hr periods for mean arterial pressure (MAP) and heart rate (HR). Two days after the second vehicle gavage, rats were again anesthetized with halothane and given a 2 mL gavage with one of the test drugs (10 mmol/L or 80 μmol·kg^−1). In random order rats received tempol, telmisartan, tempol plus telmisartan, or tempol/telmisartan ester-linked adduct (YK). Each rat received only one drug or drug combination. Two additional groups were tested similarly with candesartan and tempol+candesartan.
Preliminary studies were undertaken of antihypertensive responsiveness to gavage with 80 and 800 μmol kg^−1 of tempol. […] Therefore, the study was conducted in rats equilibrated to a high salt intake (Teklad Inc, 2826 Latham Drive, Madison, Wis. 53713) and given four daily doses of […] of drugs or vehicle.

[4] = tested on: Ang II-stimulated spontaneously hypertensive rat preglomerular vascular smooth muscle cells; test: O2.^− generation in Ang II-stimulated PGVSMCs, lucigenin-enhanced chemiluminescence; type: cell-based
Experimental: Preglomerular vascular smooth muscle cells (PGVSMCs) were isolated from 13- to 15-week-old male spontaneously hypertensive rats purchased from Taconic Farms (Germantown, N.Y.) as previously described (3, 9). Briefly, 1% Fe2O3 in DMEM was injected into isolated kidneys through the renal artery. The iron-loaded kidney was removed from the rat, the cortex was minced and washed in a 1% collagenase IV solution. Blood vessels were collected on a magnet and incubated with DMEM/F12 supplemented with 10% FCS and 20 U of penicillin-streptomycin. Experiments were conducted between passage 5 and 15. PGVSMCs were cultured in DMEM/F12 supplemented with 10% FBS, 100 U/mL penicillin, 100 μg/mL streptomycin and 200 μg/mL glutamine at 37° C. in 5% CO2-95% air at 98% humidity. […]
To determine the effects of drugs, cells were pretreated with graded concentrations (10^−12 to 10^−4 M) of tempol, telmisartan, tempol plus telmisartan, and tempol/telmisartan ester-linked adduct or vehicle (PBS) for 2 hours. […] Chemiluminescence was quantitated in a reader (AutoLumatPlus LB 953; EG&G, Berthold, Germany). The dynamic tracing was recorded for 180 seconds after the addition of lucigenin (10 μmol·L^−1) and NADPH (100 μmol·L^−1). […] The protein concentrations were measured with Bio-Rad kit (Hercules, Calif.). […]

AT2-R = biological target: T1, AT2-R (Bos taurus, UniProt G5E6F7); test: Angiotensin II, Type 2 receptor radioligand binding displacement; design: species or system bovine; details: 10^−8 M drug concentration, n=2 (FIG. 3B)
T1 construct: from tissue; host or cells: bovine cerebellum membranes
T1 sequence (G5E6F7 1-362): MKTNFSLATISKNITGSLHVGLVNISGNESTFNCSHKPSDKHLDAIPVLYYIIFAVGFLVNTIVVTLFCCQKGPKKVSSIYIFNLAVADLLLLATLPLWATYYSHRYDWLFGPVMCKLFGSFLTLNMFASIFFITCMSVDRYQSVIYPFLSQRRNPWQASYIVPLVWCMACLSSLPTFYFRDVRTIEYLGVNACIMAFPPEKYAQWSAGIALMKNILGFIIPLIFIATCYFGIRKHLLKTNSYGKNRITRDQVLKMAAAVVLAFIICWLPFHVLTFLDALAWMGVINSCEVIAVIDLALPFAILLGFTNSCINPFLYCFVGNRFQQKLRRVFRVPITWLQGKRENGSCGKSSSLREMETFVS
Experimental: Angiogensin II, Type 2 Assay.
The assay was performed with a membrane preparation from bovine cerebellum. 200 μL of receptor suspension was re-suspended as 400 units in 80 mL and 100 units in 20 mL. The ligand [^125I]Tyr-4-Angiotensin II ([M] 1E-^10, Kd (binding affinity) 4E-^10, Bmax 2.11 fmol/mg) was used as a control. Radioactivity was counted in DPM. The assay buffer was 50 mM TRIS-HCl, containing 100 mM NaCl, 1 mM MgCl2, 0.1 mM Bacitracin, 0.1% BSA, (pH 7.2 at 25° C.) in an assay volume of 250 μL. Radioligand: 25 μL of Sar1, Tyr4-[^125I].

Row | Structure (SMILES) | Δ MAP Day 1 [1] | Δ MAP Day 2 [1] | Δ MAP Day 3 [1] | blood pressure effect, summary of Table 1 [1] | inhibition of lucigenin-enhanced chemiluminescence counts [2] | reduction of MAP [3] | reduction of BP compared with tempol [3] | inhibition of O2.^− generation, tempol versus telmisartan ([4]; at 10^−4 M) | fall in MAP, high salt (6 g·100 g^−1) compared to normal salt (0.3 g·100 g^−1) diet ([3]; pilot study, 16-24 hours after tempol 80 μmol kg^−1) | fall in MAP after 4 daily doses compared to the first dose ([3]; pilot study, high salt intake) | inhibition of O2.^− generation ([4]; 10^−12 to 10^−4 M, 10^−6 M Ang II for 4 hours, comparison at 10^−11, 10^−10 and 10^−6 M) | AT2-R binding displacement (AT2-R) | reduction of BP compared with single drugs ([3]; 12-24 hours after the first gavage) | additive effect on BP with repeated dosing ([3]; 16-24 hours after the fourth gavage) | reduction of MAP compared with candesartan or candesartan plus tempol ([3]; over 24 hours) | reduction of blood pressure compared with candesartan or candesartan plus tempol ([3]; over four days)
1 | CCCc1nc2c(C)cc(-c3nc4ccccc4n3C)cc2n1Cc1ccc(-c2ccccc2C(=O)NC2CC(C)(C)N([O])C(C)(C)C2)cc1 [PLJ] | −13 mmHg | −14 mmHg | −14 mmHg | reduce blood pressure of conscious SHR similar to telmisartan | – | – | – | – | – | – | – | – | – | – | – | –
2 | CCCc1nc2c(C)cc(-c3nc4ccccc4n3C)cc2n1Cc1ccc(-c2ccccc2C(=O)O)cc1 [Telmisartan, telmisartan] | −14 mmHg | −20 mmHg | −16 mmHg | – | ineffective | reduced the MAP | significantly more effective in reducing the BP than tempol | – | – | – | – | – | – | – | – | –
3 | CC1(C)CC(O)CC(C)(C)N1[O] [Tempol, tempol] | 0 mmHg | −4 mmHg | −2 mmHg | apparent absence of any consistent effect | – | reduced the MAP | – | significantly (p<0.05) more effective than telmisartan | twice as great | twice as great | – | – | – | – | – | –
4 | CCCc1nc2c(C)cc(-c3nc4ccccc4n3C)cc2n1Cc1ccc(-c2ccccc2C(=O)OC2CC(C)(C)N([O])C(C)(C)C2)cc1 [YK] | −13 mmHg | −14 mmHg | −14 mmHg | reduce blood pressure of conscious SHR similar to telmisartan | – | reduced the MAP | – | – | – | – | significantly more effective than tempol or telmisartan alone | without effects on AT2-R binding | more effective than either tempol or telmisartan | lost with repeated dosing | reduced MAP significantly more than candesartan or candesartan plus tempol | still reduced blood pressure more than candesartan or candesartan plus tempol
5 | CCOc1nc2cccc(C(=O)O)c2n1Cc1ccc(-c2ccccc2-c2nnn[nH]2)cc1 [candesartan] | – | – | – | – | – | reduced the MAP | significantly more effective in reducing the BP than tempol | – | – | – | – | – | – | – | – | –
